Data: patent US10030016B2 (Sunesis Pharmaceuticals, Inc., priority 2009, dated 2018)
pEC50, pIC50: −log10 of the molar value. Counter-ions that a name gives are not always drawn. Like-named read-outs stand apart in the source and are kept apart here.

Tests used:
PDK1 = PDK1 (Homo sapiens (Human), UniProt O15530); assay: PDK1 kinase assay (coupled PDK1/AKT/FAM-crosstide assay, IMAP fluorescence polarization); format: biochemical
Procedure, shortened: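 GST-tagged human PDK1 (aa 51-359, 0.75 nM) from insect cells activated unphosphorylated GST-AKT2 (aa 140-467–PIFtide fusion, 10 nM), which phosphorylated 100 nM FAM-crosstide; 40 μM ATP, pH 7.2 Tris/MgCl2, 30 min at 25° C. IMAP fluorescence polarization read-out; ΔmP versus compound concentration fitted with a 4-parameter curve.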

[1] = system: phospho-akt (Thr308) in PC-3 cells; assay: Inhibition of phospho-akt (Thr308) in PC-3 cells, MSD phospho-akt 308 ELISA kit; format: cell-based; conditions: Homo sapiens, 2 hours, no serum, read-out: EC50
Procedure, shortened: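 Serum-free 2 h compound exposure of overnight-seeded PC-3 cells, threefold dilution series; lysates analysed on blocked MSD plates (3% BSA) for Thr308-phosphorylated Akt, normalised between DMSO and 5 μM wortmannin wells.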

[2] = inhibition of phospo-PDK1 in vitro
[3] = inhibition of P308 Akt in PC-3 cells, MSD
[4] = inhibition of P308 Akt in PC-3 cells using MSD

Sequence of PDK1 (O15530 51-359): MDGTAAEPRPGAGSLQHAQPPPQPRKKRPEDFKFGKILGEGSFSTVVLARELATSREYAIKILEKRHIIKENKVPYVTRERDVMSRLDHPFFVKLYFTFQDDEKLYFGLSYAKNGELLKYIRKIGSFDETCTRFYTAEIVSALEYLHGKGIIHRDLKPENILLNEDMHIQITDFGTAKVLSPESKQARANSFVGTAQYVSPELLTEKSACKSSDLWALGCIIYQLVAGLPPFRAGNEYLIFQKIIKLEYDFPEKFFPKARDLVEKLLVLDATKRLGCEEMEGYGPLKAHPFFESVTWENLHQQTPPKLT

Compound | pIC50 (PDK1; [2]) | pEC50 [1, 3] | pIC50 (PDK1; inhibition of PDK1 in vitro) | pEC50 [1, 4] | also measured
C[C@H](NC(=O)c1cccnc1NCc1ccc(-c2ccc3ncnc(N)c3c2)s1)c1ccc(F)cc1 [Example 3.15, 2-({[5-(4-aminoquinazolin-6-yl)thiophen-2-yl]methyl}amino)-N-[(1S)-1-(4-fluorophenyl)ethyl] pyridine-3-carboxamide] | 6.00 to 7.00 | > 6.00 | – | – | –
CCOC(=O)c1cnc(NCc2ccc(-c3ccc4ncnc(N)c4c3)s2)c(C(=O)NCc2ccc(F)c(F)c2)c1 [Example 7.23.2, Ethyl 6-({[5-(4-aminoquinazolin-6-yl)thiophen-2-yl]methyl}amino)-5-[(3,4-difluorobenzyl)carbamoyl]pyridine-3-carboxylate] | 6.00 to 7.00 | > 6.00 | – | – | –
C[C@@H](Nc1ncc(C(F)(F)F)cc1C(=O)Nc1ccc(F)cc1)c1ccc(-c2cnc3[nH]nc(N)c3c2)cc1 [Example 422, 2-{(R)-1-[4-(3-Amino-1H-pyrazolo[3,4-b]pyridin-5-yl)-phenyl]-ethylamino}-N-(4-fluoro-phenyl)-5-trifluoromethyl-nicotinamide] | – | – | > 7.00 | > 6.00 | –
Cc1nc(C)c(/C=C2\C(=O)Nc3cc(/C=C/CNc4ncccc4C(=O)NCc4ccc(F)c(F)c4)ccc32)[nH]1 [Example 15.14, N-(3,4-Difluoro-benzyl)-2-((E)-3-{3-[1-(2,5-dimethyl-3H-imidazol-4-yl)-meth-(Z)-ylidene]-2-oxo-2,3-dihydro-1H-indol-6-yl}-allylamino)-nicotinamide] | > 7.00 | > 6.00 | – | – | –
Nc1ncnc2ccc(-c3csc(Nc4ncccc4C(=O)NCc4ccc(F)c(F)c4)n3)cc12 [Ex. 13, 2-(4-(4-aminoquinazolin-6-yl)thiazol-2-ylamino)-N-(3,4-difluorobenzyl)-nicotinamide] | 5.30 to 6.00 | < 5.00 | – | – | –
CCNS(=O)(=O)c1cnc(NCc2ccc(-c3ccc4ncnc(N)c4c3)s2)c(C(=O)NCc2ccc(F)c(F)c2)c1 [Example 8.7.11, 2-({[5-(4-aminoquinazolin-6-yl)thiophen-2-yl]methyl}amino)-N-(3,4-difluorobenzyl)-5-(ethylsulfamoyl)pyridine-3-carboxamide] | 6.00 to 7.00 | > 6.00 | – | – | –
C[C@H](NC(=O)c1cccnc1NCc1ccc(-c2ccc3ncc4ncn(C)c4c3c2)s1)c1ccc(F)cc1 [Example 2.18] | 6.00 to 7.00 | > 6.00 | – | – | –
O=C(NCc1ccc(F)c(F)c1)c1cccnc1NCc1cc(-c2c[nH]c3ncc(-c4ccc[nH]4)cc23)ccn1 [Example 336] | – | – | > 7.00 | 5.00 to 6.00 | –
Nc1ncnc2ccc(-c3ccc(CNc4ncccc4C(=O)NCCN4CCCC4)s3)cc12 [Example 3.36, 2-({[5-(4-aminoquinazolin-6-yl)thiophen-2-yl]methyl}amino)-N-[2-(pyrrolidin-1-yl)ethyl] pyridine-3-carboxamide (TFA salt)] | < 5.30 | 5.00 to 6.00 | – | – | –
Nc1ncnc2ccc(-c3ccc(CNc4ncsc4C(=O)NCc4ccc(F)c(F)c4)s3)cc12 [Ex. 12.1] | > 7.00 | < 5.00 | – | – | –
Nc1ncnc2ccc(-c3ccc(CNc4ncc(Br)nc4C(=O)NCc4ccc(F)c(F)c4)s3)cc12 [Ex. 10.2, 3-({[5-(4-aminoquinazolin-6-yl)thiophen-2-yl]methyl}amino)-6-bromo-N-(3,4-difluorobenzyl)pyrazine-2-carboxamide] | > 7.00 | 5.00 to 6.00 | – | – | –
Nc1ncnc2ccc(-c3ccc(CNc4ncccc4C(=O)NC4CCCCCC4)s3)cc12 [Example 3.30, 2-({[5-(4-aminoquinazolin-6-yl)thiophen-2-yl]methyl}amino)-N-cycloheptylpyridine-3-carboxamide (TFA salt)] | < 5.30 | < 5.00 | – | – | –
Nc1cnc(-c2ccc(CNc3ncc(C(F)(F)F)cc3C(=O)Nc3ccc(F)cc3)cc2)cn1 [Example 155, 2-(4-(5-aminopyrazin-2-yl)benzylamino)-N-(4-fluorophenyl)-5-(trifluoromethyl)nicotinamide] | – | – | > 7.00 | > 6.00 | –
C[C@H](NC(=O)c1cc(C(F)(F)F)cnc1NCc1ccc(-c2ccc3ncnc(N)c3c2)s1)c1ccc(F)cc1 [Example 8.12.5, 2-({[5-(4-aminoquinazolin-6-yl)thiophen-2-yl]methyl}amino)-N-[(1S)-1-(4-fluorophenyl)ethyl]-5-(trifluoromethyl)pyridine-3-carboxamide] | > 7.00 | 5.00 to 6.00 | – | – | –
CC(C)Oc1cc(CNc2ncccc2C(=O)Nc2ccc(F)c(F)c2)cc(-c2c[nH]c3ncc(C(=O)NC4CC4)cc23)c1 [Example 4.1.1, N-cyclopropyl-3-(3-((3-(3,4-difluorophenylcarbamoyl)pyridin-2-ylamino)methyl)-5-isopropoxyphenyl)-1H-pyrrolo[2,3-b]pyridine-5-carboxamide] | 6.00 to 7.00 | < 5.00 | – | – | –
Nc1ncnn2ccc(-c3ccc(CNc4ncc(C(F)(F)F)cc4C(=O)NCc4ccc(F)c(F)c4)cc3)c12 [Example 176, 2-[4-(4-Amino-pyrrolo [2,1-f][1,2,4]triazin-5-yl)-benzylamino]-N-(3,4-difluoro-benzyl)-5-trifluoromethyl-nicotinamide] | – | – | > 7.00 | 5.00 to 6.00 | –
Nc1ncnc2ccc(-c3ccc(CNc4nc(C(F)(F)F)ccc4C(=O)NCc4ccc(F)c(F)c4)s3)cc12 [Example 8.12.2, 2-({[5-(4-aminoquinazolin-6-yl)thiophen-2-yl]methyl}amino)-N-(3,4-difluorobenzyl)-6-(trifluoromethyl)pyridine-3-carboxamide] | > 7.00 | 5.00 to 6.00 | – | – | –
C[C@H](NC(=O)c1cc(C#N)cnc1NCc1ccc(-c2cnc(N)c(N3CCC[C@@H](N)C3)n2)cc1)c1ccc(F)cc1 [Example 188, 2-{4-[5-Amino-6-((R)-3-amino-piperidin-1-yl)-pyrazin-2-yl]-benzylamino}-5-cyano-N-[(S)-1-(4-fluoro-phenyl)-ethyl]-nicotinamide] | – | – | > 7.00 | 5.00 to 6.00 | –
N#Cc1cnc(NCc2ccc(-c3cnc(N)cn3)cc2)c(C(=O)Nc2ccc(F)cc2)n1 [Example 34, 3-(4-(5-aminopyrazin-2-yl)benzylamino)-6-cyano-N-(4-fluorophenyl) pyrazine-2-carboxamide] | > 7.00 | > 6.00 | – | – | –
Nc1ncnc2[nH]cc(-c3ccc(CNc4ncc(C(F)(F)F)cc4C(=O)Nc4ccc(F)cc4)cc3)c12 [Example 321, 2-(4-(4-amino-7H-pyrrolo [2,3-d]pyrimidin-5-yl)benzylamino)-N-(4-fluorophenyl)-5-(trifluoromethyl)nicotinamide] | – | – | > 7.00 | > 6.00 | –
C[C@H](NC(=O)c1cccnc1NCc1ccc(-c2ccc3ncnc(N)c3c2)s1)c1ccc(F)c(F)c1 [Example 3.41, (S)-2-(((5-(4-aminoquinazolin-6-yl)thiophen-2-yl)methyl)amino)-N-(1-(3,4-difluorophenyl)ethyl) nicotinamide (TFA salt)] | > 7.00 | – | – | – | pEC50 ([1]; PC-3, 2 h, inhibition of P308 Akt in PC-3 cells, MSD): > 6.00
Nc1n[nH]c2ncc(-c3ccc(CNc4ncc(C(F)(F)F)cc4C(=O)N4CC(F)(F)C4)cc3)cc12 [Example 293] | – | – | 5.30 to 6.00 | – | pEC50 ([1]; PC-3, 2 h, inhibition of P308 Akt in PC-3 cells using MSD): < 5.00
C[C@H](NC(=O)c1cc(C#N)cnc1NCc1ccc(-c2cnc(N)c(C3=CCNCC3)n2)cc1)c1ccc(F)cc1 [Example 233, 2-{4-[5-Amino-6-(1,2,3,6-tetrahydro-pyridin-4-yl)-pyrazin-2-yl]-benzylamino}-5-cyano-N-[(S)-1-(4-fluoro-phenyl)-ethyl]-nicotinamide] | – | – | > 7.00 | > 6.00 | –
